The values that follow come from US7092825B1, “Protein engineering” (The University of Queensland, priority 1998, dated 2006).

Positions of bridges follow the written chain, without caps; N, C: chain ends. Residues, ends and D or L forms follow the SMILES beside them.

Series [1] has as its target T1, human Growth Hormone Receptor (hGHR) (Homo sapiens, UniProt P10912).
T1 construct: expressed in transfected cells; host or cells: BaF-B03 (BaF3) pro-B cells
T1 sequence (P10912 19-638): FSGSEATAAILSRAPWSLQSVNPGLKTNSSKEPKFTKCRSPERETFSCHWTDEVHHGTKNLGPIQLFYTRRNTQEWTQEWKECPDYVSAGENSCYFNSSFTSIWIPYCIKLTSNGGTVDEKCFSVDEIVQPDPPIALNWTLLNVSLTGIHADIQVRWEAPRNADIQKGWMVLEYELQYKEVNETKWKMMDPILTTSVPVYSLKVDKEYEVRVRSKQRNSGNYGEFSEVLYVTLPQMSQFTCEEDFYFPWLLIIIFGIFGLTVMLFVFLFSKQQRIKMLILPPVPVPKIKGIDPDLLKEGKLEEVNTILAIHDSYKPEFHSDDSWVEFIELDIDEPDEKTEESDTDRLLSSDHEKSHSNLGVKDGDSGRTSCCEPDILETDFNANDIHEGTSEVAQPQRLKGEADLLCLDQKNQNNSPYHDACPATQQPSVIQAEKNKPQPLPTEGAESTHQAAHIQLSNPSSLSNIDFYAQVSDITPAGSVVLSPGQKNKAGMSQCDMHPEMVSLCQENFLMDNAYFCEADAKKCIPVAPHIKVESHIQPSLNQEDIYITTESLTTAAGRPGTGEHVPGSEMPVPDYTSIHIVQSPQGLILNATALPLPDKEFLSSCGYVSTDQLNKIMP
As to the kind of experiment: Growth Hormone proliferation assay (hGH-stimulated BaF3 cell proliferation, MTT). The following applies: inhibition of BaF3 cell proliferation in response to 0.5 ng/mL hGH; read-out: calculated Ki. Format: cell-based. The procedure:
SCY01 was tested for biological function by bioassay using the BaF3 cell line, which cells normally respond to GH. SCY01 was assayed at various concentrations to check its ability to inhibit BaF3 cell proliferation in response to either 0.5 ng/mL hGH, or as a control, 50 Units/mL IL-3.
BaF-B03 cells (a pro B cell line) that stably express the human Growth Hormone Receptor (hGHR) are used in this assay since they are able to elicit a GH-specific response at concentrations as low as 0.1 ng/mL hGH (4.54 pM). These cells also endogenously express the IL3 receptor and require IL3 or GM-CSF to survive in culture. The assay is based on that of Mossman, 1983, J. Immunol. Meth. 65 55, and involves the following procedure:— • (i) culture cells in RPMI-1640 medium supplemented with 10% (v/v) foetal bovine serum (FBS) and 100 units/mL IL3 under 5% CO2 at 37° C. Allow the culture to reach mid-log growth phase; • (ii) centrifuge cells at 500×g and wash with PBS to remove IL3 from the culture medium. Repeat the centrifugation and resuspend in 1 mL of RPMI-1640 plus 0.5% (v/v) FBS. […] Allow plate to rest in the dark for 5 minutes before reading; • (x) read plate at 595 nm on a microplate reader. Values obtained are directly proportional to cell number (as measured by mitochondrial dehydrogenase levels).

The nature of series [2]: Blood serum stability test (RP-HPLC). The format is in vitro ADME. The note with it: 37° C. From the text: Preliminary studies evaluated the bioavailability of SCY01 by exposing it to a variety of proteases (trypsin, chymotrypsin and pepsin) and blood serum proteins as described in MATERIALS AND METHODS. The results of the blood serum stability test are presented in Table 2, and the results of the enzyme stability tests are presented in Table 3. […] Thus emphasising the favourable chemical characteristics of disulfide-rich proteins.
Blood was collected in heparinised tubes by venapuncture. The blood was centrifuged at 5000 rpm for 20 mins and the serum decanted. The blood serum was stored at −20° C. A sample of the blood serum (900 μL) was incubated with 100 μL of the stock peptide solution (1 mg/mL in H2O) at 37° C. and aliquots (100 μL) removed at the required time. A solution of 50% CH3CN 0.1% TFA was added to precipitate the blood serum proteins and centrifuged at 13000 rpm for 5 mins. A sample of this solution (100 μL) was analysed by RP-HPLC (Vydac C18 218TP54 250×4.1 mm id 1%/min gradient H2O/CH3CN 0.1% TFA) to detect peptide digestion.

A further series concerns trypsin. As to the kind of experiment: Enzyme stability test, trypsin. Format: in vitro ADME. The following applies: trypsin 5% w:v, NH4HCO3 pH 8.3, 37° C. The procedure:
To the peptide solution (NH4HCO3, pH 8.3, 0.87 mg/mL) was added trypsin (5% w:v). Samples were incubated at 37° C. and aliquots removed at 0, 1, 3 and 18 hrs and analysed by RP-HPLC as above.

A further series concerns α-chymotrypsin. The experiment in a line: Enzyme stability test, chymotrypsin. Format: in vitro ADME. The note with it: chymotrypsin 5% w:v, NH4HCO3 pH 8.3, 37° C. The procedure: To the stock peptide solution (100 μL) was added 900 μL NH4HCO3 (pH 8.3). Chymotrypsin was added to 5% w:v and incubated at 37° C. Aliquots were removed at 0 hr, 1 hr and 24 hrs and analysed by RP HPLC.

For another series, the system named is pepsin. As to the kind of experiment: Enzyme stability test, pepsin. Format: in vitro ADME. The following applies: pepsin 1% w:v, pH 2.2, 37° C. How it is done:
To the stock peptide solution (100 μL) was added H2O (800 μL) and 0.1 M HCl (100 μL) to pH 2.2. Pepsin was added to give a 1% w:v solution and incubated at 37° C. Aliquots were removed at 0 h, 1 h and 24 hrs and analysed by RP-HPLC.

For orientation: Ki means the dissociation constant of the complex between target and ligand, obtained from inhibition or displacement. Consider `CC[C@H](C)[C@@H]1NC(=O)[C@@H]2CSSC[C@H](NC(=O)[C@H](Cc3ccccc3)NC(=O)[C@H](C)N)C(=O)N[C@@H](CC(N)=O)C(=O)N[C@@H](CC(C)C)C(=O)N[C@@H](CCCNC(=N)N)C(=O)N[C@@H](CCCCN)C(=O)N[C@H]3CSSC[C@H](NC(=O)[C@H](CCCCN)NC(=O)[C@H](CC(=O)O)NC(=O)CNC1=O)C(=O)N[C@@H](CCC(=O)O)C(=O)N[C@H](C(=O)N[C@H](C(=O)N[C@@H](CCCCN)C(N)=O)C(C)C)CSSC[C@H](NC(=O)[C@H](CCCCN)NC(=O)[C@H](CC(=O)O)NC(=O)[C@H](CCC(N)=O)NC3=O)C(=O)N[C@@H](CCC(=O)O)C(=O)N[C@@H]([C@@H](C)O)C(=O)N[C@@H](Cc1ccccc1)C(=O)NCC(=O)N[C@@H](CC(C)C)C(=O)N[C@@H](CC(C)C)C(=O)NCC(=O)N[C@@H](CCCCN)C(=O)N2` [SCY01] (H-AFCNLRKCQDKCETFGLLGKCIGDKCECVK-NH2; disulfide 3-21, 8-26, 12-28), for which the Ki in series [1] was about 200 µM. In addition, the “Blood serum stability test result, 0 hr” value in series [2] (0 hr) was “stable”. For the same compound, in series [2] (1 hr), the “Blood serum stability test result, 1 hr” value is given as “stable”. Also, in series [2] (24 hrs), the “Blood serum stability test result, 24 hrs” value is recorded as “stable”. Also, in the series with trypsin, the “Enzyme stability test result, trypsin” value is recorded as “Stable over 18 hrs”. The “Enzyme stability test result, α-chymotrypsin” value with α-chymotrypsin is given as “Stable over 18 hrs”. In addition, the “Enzyme stability test result, pepsin” value in the series with pepsin is listed as “Stable over 18 hrs”.
